Measurements as given in publication PMC3947011 (ACS chemical biology, 2013).
Like-named read-outs stand apart in the source and are kept apart here.

Legend:
Type in all cases: cell-based
[1] = test system: Methicillin-resistant S. aureus (ATCC 33591)
[2] = test system: P. aeruginosa (ATCC 27853)
[3] = test system: K. pneumoniae (ATCC 13383)
[4] = test system: Methicillin-resistant S. epidermidis (RP62A)
E. coli (ATCC 25922) = test system: E. coli (ATCC 25922)
[5] = test system: Vancomycin-resistant E. faecalis (ATCC 700802)

## Pexiganan
[1]; 24 h
  MIC S. aureus: 16 µg/mL
[1]; value in parentheses
  MIC S. aureus: 6 µM
[2]; 24 h
  MIC P. aeruginosa: 16 µg/mL
[2]; value in parentheses
  MIC P. aeruginosa: 6 µM
[3]; 24 h
  MIC K. pneumoniae: 8 µg/mL
[3]; value in parentheses
  MIC K. pneumoniae: 3 µM
[4]; 24 h
  MIC S. epidermidis: 8 µg/mL
[4]; value in parentheses
  MIC S. epidermidis: 3 µM
E. coli (ATCC 25922); complete growth inhibition after 24 h, highest tested 25 μg/mL
  MIC E. coli: 8 µg/mL
E. coli (ATCC 25922); value in parentheses
  MIC E. coli: 3 µM
[5]; 24 h
  MIC E. faecalis: 32 µg/mL
[5]; value in parentheses
  MIC E. faecalis: 12 µM
